This test has as its system Balb/c female mice. Description: Transepidermal water loss in pups of mothers receiving SCFA in drinking water during pregnancy (TEWLmeter method). The conditions noted are these: 200 mM in drinking water of pregnant mothers from day 1 of pregnancy; TEWL at day 3 after birth; vs regular drinking water; FIG. 1. The class given is in vivo. The protocol: • Breeding pairs were set up with 1 Balb/c male and 2 Balb/c female mice. • From day 1 of pregnancy, female mice received 200 mM sodium acetate or sodium propionate ad libitum in drinking water. These doses correspond to 0.05-0.1 and 0.05-0.08 g/mouse/day, respectively. Control female mice received regular drinking water. • Cages were monitored from day 18-24 for litters. Regular drinking water was recommenced in the mothers as soon as pups were born. 6-7 pups per group were included in the experiment. • Transepidermal water loss was measured at day 3 after birth (baseline TEWL) by the TEWLmeter method and given in g·h^−1·m^−2.

Structures are written as SMILES.

With `CC(=O)[O-].[Na+]` [acetate, sodium acetate], the “transepidermal water loss in offspring” value is “significantly decreased”.
Turning to `CCC(=O)[O-].[Na+]` [propionate, sodium propionate], the “transepidermal water loss in offspring” value is given as “significantly decreased”.

For the origin of these results see patent US10751308B2, “Composition for preventing or reducing transepidermal water loss” (NESTEC S.A., priority 2016, dated 2020).
